Assay results taken from publication PMC8004375, “Pharmacokinetic Study of Safrole and Methyl Eugenol after Oral Administration of the Essential Oil Extracts of Asarum in Rats by GC-MS” (BioMed Research International, 2021).

Key:
[1] = International Agency for Research on Cancer classification; cited from earlier work
[2] = Stability of analytes in rat plasma (QC samples); assay type: in vitro ADME; settings: for Stability in plasma samples: all conditions studied: room temperature 4 h, three freeze-thaw cycles, auto-sampler 12 h, -80°C 7 days; for Measured concentration, three freeze-thaw cycles / Measured concentration, -80°C for 7 days / Measured concentration, auto-sampler for 12 h / Measured concentration, room temperature for 4 h: rat plasma, n = 6; for Measured concentration, three freeze-thaw cycles: freeze -20°C
Description: The stability was evaluated under different condition with variable time and temperature including long-term stability (storing the QC samples at -80°C for 7 days), short-term stability (storing the QC samples at room temperature for 4 h), freeze/thaw stability (three freeze (-20°C) thaw cycles), and auto-sampler stability (incubating the spiked samples for 12 h in auto-sampler).

[3] = Pharmacokinetic study in rat plasma after oral administration of Asarum essential oil extracts (GC-MS); assay type: in vivo, Sprague–Dawley rats; settings: oral Asarum extracts 20 g/kg; for MRT / Cmax / half-life / AUC(0-inf) / AUC(0-t) / Tmax / MRT last / MRT inf: male, Sprague-Dawley, in vivo; for MRT: 0−t or 0−∞ not specified, read-out: mean residence time; for Cmax: as stated in text without unit; for half-life: elimination half-life; for half-life / AUC(0-inf) / AUC(0-t) / Tmax / MRT last / MRT inf: n = 6, mean ± SD; for MRT last: read-out: MRT(0 − t); for MRT inf: read-out: MRT(0 − ∞)
Description: The GC–MS system (Shimadzu GC-MS QP-2010 Ultrasystem) was coupled with an AOC-20i autosampler. The column used was a DB-17 capillary column (30 m × 0.25 mm × 0.25 μm film thickness). 99.99% high purity Helium was used as the carrier gas with a flow rate of 1.3 mL/min. The column temperature was programmed as follows: initial temperature 90°C, 20°C/min to 106°C, 30°C/min to 136°C, 40°C/min to 210°C, and finally 5.5°C/min to 214°C. The injection volume was 1 μL, and the injection temperature was 250°C.
The MS data were acquired in the electron-impact mode, and the SIM mode was used for quantification. The three characteristic ions of safrole were 162.0, 131.0, and 104.0 and that of methyl eugenols were 178.0, 163.0, and 147.0 (ions in bold fonts were used for the quantification). The transfer line temperature was set at 250°C, and the ionization source temperature was set at 230°C. The total run time was 4.5 min with a solvent delay of 3 min.
100 μL plasma sample was incorporated with 10 μL n-hexane and 10 μL of IS (5 μg/mL) and vortexed for 30 seconds. 130 μL n-hexane was then added to the sample and vortex-mixed for 5 min. The samples were centrifuged (12,000 × g, 10 min, 4°C), and […] was injected for GC-MS analysis.
All animal protocols were approved by the Laboratory Animal Ethics Committee of Tianjin University Traditional Chinese Medicine (TCM-LAEC20190059). Six male Sprague–Dawley rats (body weight 240 ± 10 g) were fasted for 12 h prior to the study, with free access to water. The Asarum extracts were administered to rats orally at a dose of 20 g/kg. 0.5% CMC-Na aqueous solution was used to dissolve the Asarum extracts to a concentration of 2 g/mL suspension and stored at 4°C. Approximately 220 μL blood samples were collected from the suborbital vein into centrifuge tubes at 0, 0.08, 0.17, 0.5, 1, 2, 4, 6, 8, 10, 12, 24, 36, 48, and 60 h postadministration in rats. The plasma was separated by centrifugation at 4000 × g for 10 min immediately and frozen at -80°C until the time of analysis. The main program pharmacokinetic parameters were processed by Drug and Statistics 3.0 (Medical College of Wannan, China).

[4] = high QC (spiked 12000 ng/mL safrole, 8000 ng/mL methyl eugenol)
[5] = low QC (spiked 120 ng/mL safrole, 80 ng/mL methyl eugenol)
[6] = medium QC (spiked 1200 ng/mL safrole, 800 ng/mL methyl eugenol)

Compound	IARC carcinogen group [1]	Stability in plasma samples [2]	Measured concentration, three freeze-thaw cycles [2, 4]	Measured concentration, -80°C for 7 days [2, 4]	Measured concentration, auto-sampler for 12 h [2, 4]	Measured concentration, room temperature for 4 h [2, 4]	Measured concentration, three freeze-thaw cycles [2, 5]	Measured concentration, -80°C for 7 days [2, 5]	Measured concentration, auto-sampler for 12 h [2, 5]	Measured concentration, room temperature for 4 h [2, 5]	Measured concentration, three freeze-thaw cycles [2, 6]	Measured concentration, -80°C for 7 days [2, 6]	Measured concentration, auto-sampler for 12 h [2, 6]	Measured concentration, room temperature for 4 h [2, 6]	MRT [3]	Cmax [3]	half-life [3]	AUC(0-inf) [3]	AUC(0-t) [3]	Tmax [3]	also measured
C=CCc1ccc(OC)c(OC)c1 [Methyl eugenol]	group 2B carcinogen	stable	7287.0 ± 522.7 ng/mL	7367.9 ± 638.7 ng/mL	7100.8 ± 230.4 ng/mL	7418.6 ± 62.9 ng/mL	78.5 ± 6.5 ng/mL	81.0 ± 5.2 ng/mL	73.9 ± 6.1 ng/mL	89.6 ± 8.8 ng/mL	708.5 ± 16.2 ng/mL	749.8 ± 40.7 ng/mL	727.7 ± 6.0 ng/mL	751.7 ± 7.8 ng/mL	10.6 ± 0.63 h	823 ± 124 ng/mL	3.67 ± 1.6 h	15300 ± 2790 ng·h/mL	15200 ± 2760 ng·h/mL	6.67 ± 2.07 h	MRT last [3]: 10.6 ± 0.63 h; MRT inf [3]: 10.6 ± 0.63 h; completely metabolised after [3]: 36 h
C=CCc1ccc2c(c1)OCO2 [Safrole]	group 2B carcinogen	stable	12526.3 ± 331.5 ng/mL	12741.7 ± 103.1 ng/mL	12065.2 ± 210.7 ng/mL	12751.7 ± 38.6 ng/mL	137.0 ± 10.6 ng/mL	135.1 ± 11.0 ng/mL	136.3 ± 11.8 ng/mL	132.5 ± 12.4 ng/mL	1319.7 ± 21.2 ng/mL	1348.1 ± 41.4 ng/mL	1271.1 ± 3.3 ng/mL	1306.7 ± 15.7 ng/mL	18.4 ± 0.64 h	1980 ± 267 ng/mL	2.44 ± 2.72 h	53000 ± 5260 ng·h/mL	53000 ± 5290 ng·h/mL	13 ± 1.1 h	MRT last [3]: 18.4 ± 0.64 h; MRT inf [3]: 18.4 ± 0.63 h; detectable in plasma samples after [3]: 48 h
